Consider three molecules from publication PMC13091788 (NPJ Aging, 2026).

The subject of data set [1] is C2C12 myoblasts. The data set can be described thus: Oxygen consumption analysis of C2C12 cells (Seahorse). It counts as cell-based, mouse. To be noted: C2C12, 30 μM, 24 h, vs solvent control. The method, then: Murine myoblast C2C12 cells were used for various cellular experiments in this study. Two different sources of C2C12 cells were used depending on the experiment: C2C12 cells obtained from RIKEN BRC (RCB0987) were used for gene expression, mtDNA quantification, and mitochondrial morphology analysis; C2C12 cells from ATCC (CRL-1772) were used for OCR analysis. Cells were cultured in Dulbecco’s Modified Eagle Medium (DMEM; Sigma-Aldrich or Nacalai Tesque), supplemented with 10% FBS and 1% penicillin–streptomycin. Cells were maintained in a humidified incubator at 37°C with 5% CO2.
To generate mMITOL-knockout C2C12 cells, CRISPR-Cas9 vectors were constructed. […]
The oxygen consumption rate (OCR) of C2C12 myoblasts and H9c2 cardiomyocytes were measured using a Seahorse XFe24 Analyzer and the Seahorse XF Cell Mito Stress Test Kit (Agilent Technologies), as well as a Seahorse XF HS Mini Analyzer and the Seahorse XFp Cell Mito Stress Test Kit (Agilent Technologies), according to the manufacturer’s protocol. […] The assay was performed at 37 °C, and OCR was measured at baseline and after sequential injections of the following compounds: oligomycin (Oligo; 1 μM), FCCP (0.5 μM), and a mixture of rotenone and antimycin A (Rot/Anti; 0.5 μM each). […] Non-mitochondrial respiration was defined as the OCR measured after the injection of rotenone and antimycin A.

Details of data set [2]: method as in PMID 24593257. The note with it: cited from earlier work.
Data set [3] relates to 24-month-old male C57BL/6 N mice. The experiment in a line: Age-related cardiac dysfunction in aged mice. Type of data set: in vivo, mouse. The source says:
All experimental procedures were approved by the Ethics Review Committee for Animal Experimentation at Kumamoto University, Kumamoto, Japan (approval No. A 2024-083). Procedures followed the guidelines and recommendations outlined by the ILAR Guide for the Care and Use of Laboratory Animals (8th Edition, 2011). Prior to tissue collection, mice were euthanized under isoflurane anesthesia, followed by cervical dislocation to ensure rapid euthanasia, a procedure also employed during sacrifice for tissue harvesting. Euthanasia was performed when animals met the established criteria for humane endpoints, specifically a body weight loss exceeding 20% over a 3-day period or 25% over a 1-week period, in accordance with the Kumamoto University Ethics Review Committee for Animal Experimentation above. All animals fed a normal diet (CE-2, CLEA) were randomly assigned to two groups: tap water only and tap water supplemented with AcA-BRB (0.5 mg/mL). Mice were housed in an animal facility with lighting cycles automatically controlled (12 h light/12 h dark), maintained at a stable temperature of 22 ± 2 °C and a relative humidity of 40–80%. C57BL/6NJcl wild-type (WT) male mice aged 2, 20, and 24 months were used in this study. Mice were preconditioned by chest hair removal with a topical depilatory (FUJIFILM VisualSonics), anesthetized with 1.5–2.5% isoflurane administered via inhalation, and maintained in a supine position on a dedicated animal handling platform with limbs immobilized for electrocardiogram gating during imaging. Body temperature was kept constant by relaying signals from a rectal probe to a heating pad, while heart and respiratory rates were continuously monitored. Transthoracic echocardiography was performed using a high-frequency ultrasound system dedicated to small-animal imaging (VisualSonics Vevo 3100, FUJIFILM VisualSonics) using a MS 400 linear array transducer (18–38 MHz). M-mode recording was performed at the midventricular level in the short-axis view. All images were analyzed using dedicated software (Vevo LAB version 5.7.1). LV wall thickness and internal cavity diameters at diastole (LVID;d) and systole (LVID;s) were measured. Percent LV fractional shortening (%FS) and Left Ventricular Ejection Fraction (LVEF) was calculated from M-mode measurements. To analyze cardiac diastolic function, trans-mitral flow velocity patterns and early diastolic mitral annular velocity (e’) were measured in the four-chamber view to calculate the ratio of early trans-mitral flow velocity (E) to e’ (E/e’). All procedures were performed under double-blind conditions with regard to genotype or treatment. Total RNA was extracted using a RNeasy Mini Kit (Qiagen). DNase-treated RNA was reverse-transcribed using a PrimeScript RT reagent Kit (Takara Bio). Heart tissue was homogenized using a multi-beads shocker (Yasui Kikai). Real-time quantitative RT-PCR was performed using TB Green Premix Ex Taq II (Takara Bio), and a Thermal Cycler Dice Real-Time System (Takara Bio). Relative transcript abundance was normalized to 18S rRNA levels. Primer sets used for RT-PCR are listed in Supplementary Table 3.

For data set [4], the system named is high-fat diet (HFD32)-fed mice. The experiment in a line: Survival analysis in high-fat diet-fed mice. It counts as in vivo, mouse. To be noted: 0.5 mg/mL in drinking water from 60 weeks old, HFD32 from 8 weeks of age. The method, then:
For survival analysis under metabolic stress conditions, two-month-old C57BL/6NJcl male mice fed a high-fat diet (HFD 32: water 6.2%, protein 25.5%, fat 32.0%, ash 4.0%, carbohydrate 29.4%, fiber 2.9%, providing 507.6 kcal/100 g; CLEA) were randomly assigned to two groups: tap water only and tap water supplemented with AcA-BRB (0.5 mg/mL).

Setting [5] is: AcA-BRB 0.5 mg/mL in drinking water, 24-month-old mice, vs control.
Where [6] appears, read: AcA-BRB 0.5 mg/mL in drinking water, aged mice.

For the molecule `COc1ccc2cc3[n+](cc2c1O)CCc1cc2c(cc1-3)OCO2` [AcA-BRB, berberrubine acetic acid adduct], the “OCR: basal respiration, ATP synthesis-linked respiration and maximal respiration” value in data set [1] is “significantly increased”.
On to `COc1ccc2cc3n(cc-2c1=O)CCc1cc2c(cc1-3)OCO2` [Q-BRB, quinoid-type berberrubine], for which, in data set [1], the “OCR: basal respiration, ATP synthesis-linked respiration and maximal respiration” value is “significantly increased”. Besides, in data set [2], the “water solubility (literature)” value was “water-insoluble”.
For the molecule `COc1ccc2cc3[n+](cc2c1O)CCc1cc2c(cc1-3)OCO2` [berberrubine], the “blood pressure and heart rate vs control mice” value in data set [3] (24-month-old mice, 3 months of treatment with AcA-BRB) is “comparable”. Also, the “age-related progression of left ventricular dilatation, systolic dysfunction and diastolic dysfunction (echocardiography)” value in data set [3] (AcA-BRB 0.5 mg/mL in drinking water, 24-month-old mice, after 12 weeks, vs control) was “ameliorated”. For the same molecule, in data set [3] (setting [5]), the “cardiac hypertrophy (HW/TL ratio, histology) and pulmonary congestion (LW/TL ratio)” value is on record as “improved”; the “upregulation of genes associated with heart failure and cardiac fibrosis (qRT-PCR, heart)” value was “blocked”. Also, in data set [3] (setting [6]), the “LC3A/B II/I ratio in heart tissues (western blot)” value was “increase”; the “expression of genes associated with ROS-scavenging systems (heart)” value is recorded as “upregulated”; the “expression of genes associated with mitochondrial biogenesis, dynamics and mitophagy (heart)” value is “significantly increased”; the “p62 levels in heart tissues (western blot)” value is on record as “decrease”. Also, the “lifespan compared with control mice” value in data set [4] is “significantly prolonged”.
